Consider nine molecules from patent US20240158446A1, “CYCLIC COMPOUND HAVING SELECTIVE INHIBITORY ACTION ON KRAS OVER HRAS AND NRAS” (CHUGAI SEIYAKU KABUSHIKI KAISHA, priority 2021, published 2024).

By Kd is commonly meant a measure of binding affinity in units of concentration.

The target in experiment [1] is GDP-bound NRAS wild-type protein (Homo sapiens, UniProt P01111). In words: Binding to NRAS by surface plasmon resonance (SPR), Single Cycle Kinetics. As to conditions: SPR, GDP-bound NRAS wild-type protein vs GDP-bound KRAS wild-type protein.
Experiment [2] deals with GDP-bound HRAS wild-type protein (Homo sapiens, UniProt P01112). In words: Binding to HRAS by surface plasmon resonance (SPR), Single Cycle Kinetics. As to conditions: SPR, GDP-bound HRAS wild-type protein vs GDP-bound KRAS wild-type protein. A general note: In SPR one partner is held on a chip, and binding of the other changes the refractive index at the surface.
The target in experiment [3] is GDP-bound KRAS wild-type protein (Homo sapiens, UniProt P01116). In words: Binding to KRAS by surface plasmon resonance (SPR), Single Cycle Kinetics. Conditions: SPR, Single Cycle Kinetics, GDP-bound KRAS wild-type protein; read-out: KRAS KD.
Sequence of GDP-bound KRAS wild-type protein (P01116 whole entry): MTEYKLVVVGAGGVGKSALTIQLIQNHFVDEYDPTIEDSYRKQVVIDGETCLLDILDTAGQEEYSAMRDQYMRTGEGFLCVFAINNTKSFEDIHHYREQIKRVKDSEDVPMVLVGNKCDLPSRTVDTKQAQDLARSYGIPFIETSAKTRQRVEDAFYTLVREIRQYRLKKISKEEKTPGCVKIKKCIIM

Sequence of GDP-bound NRAS wild-type protein (P01111 whole entry): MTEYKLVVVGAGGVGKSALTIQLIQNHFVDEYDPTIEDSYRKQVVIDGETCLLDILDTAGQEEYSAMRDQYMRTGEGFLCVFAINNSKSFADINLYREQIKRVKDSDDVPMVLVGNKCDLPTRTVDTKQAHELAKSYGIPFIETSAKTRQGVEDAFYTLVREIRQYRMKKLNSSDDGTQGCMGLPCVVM
Sequence of GDP-bound HRAS wild-type protein (P01112 whole entry): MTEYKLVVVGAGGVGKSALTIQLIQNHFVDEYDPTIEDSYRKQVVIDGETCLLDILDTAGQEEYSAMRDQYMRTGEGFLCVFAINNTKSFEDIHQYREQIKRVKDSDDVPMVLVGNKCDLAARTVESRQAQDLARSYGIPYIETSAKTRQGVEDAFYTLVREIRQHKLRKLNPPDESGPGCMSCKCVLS

Take `CCO[C@@H]1C[C@H]2C(=O)NC3(CCC3)C(=O)N(C)[C@@H](C3CCCC3)C(=O)N(C)[C@H](C(=O)N3CCC3)CC(=O)N(C)[C@@H](CC)C(=O)N[C@@H]([C@@H](C)CC)C(=O)N(C)CC(=O)N(C)[C@H]3C/C=C\CCN(C3=O)[C@@H](Cc3ccc(C(F)(F)F)cc3)C(=O)N(C)CC(=O)N[C@@H](CCc3cc(F)c(C(F)(F)F)c(F)c3)C(=O)N2C1` [PP1091, (2S,8S,12R,14S,20S,23S,27S,30S,36S,38Z)-23-(azetidine-1-carbonyl)-20-cyclopentyl-8-[2-[3,5-difluoro-4-(trifluoromethyl)phenyl]ethyl]-12-ethoxy-27-ethyl-4,19,22,26,32,35-hexamethyl-30-[(1S)-1-methylpropyl]-2-[[4-(trifluoromethyl)phenyl]methyl]spiro[1,4,7,10,16,19,22,26,29,32,35-undecazatricyclo[34.5.1.0^10,14]dotetracont-38-ene-17,1′-cyclobutane]-3,6,9,15,18,21,25,28,31,34,42-undecone]: the “NRAS/KRAS (ratio of KD value for NRAS to KD value for KRAS)” value in experiment [1] is “A (a compound having 10 or more and less than 20 is denoted as A)”. The “HRAS/KRAS (ratio of KD value for HRAS to KD value for KRAS)” value in experiment [2] is “B (a compound having 3 or more and less than 10 is denoted as B)”. Also, in experiment [3], the Kd is 110 pM.

On to `CCO[C@@H]1C[C@H]2C(=O)NC3(CCC3)C(=O)N(C)[C@@H](C3CCCC3)C(=O)N(C)[C@H](C(=O)N3CCOCC3)CC(=O)N(C)[C@@H](CC)C(=O)N[C@@H]([C@@H](C)CC)C(=O)N(C)CC(=O)N(C)[C@H]3C/C=C\CCN(C3=O)[C@@H](Cc3ccc(C(F)(F)F)cc3)C(=O)N(C)CC(=O)N[C@@H](CCc3cc(F)c(C(F)(F)F)c(F)c3)C(=O)N2C1` [PP1092], for which the “NRAS/KRAS (ratio of KD value for NRAS to KD value for KRAS)” value in experiment [1] is “A (a compound having 10 or more and less than 20 is denoted as A)”. Further, the “HRAS/KRAS (ratio of KD value for HRAS to KD value for KRAS)” value in experiment [2] is “A (a compound having 10 or more and less than 20 is denoted as A)”. Besides, in experiment [3], the Kd was determined as 150 pM.

For the molecule `CCO[C@@H]1C[C@H]2C(=O)NC3(CCC3)C(=O)N(C)[C@@H](C3CCCC3)C(=O)N[C@H](C(=O)N(C)C)CC(=O)N(C)[C@@H](CC)C(=O)N[C@@H]([C@@H](C)CC)C(=O)N(C)CC(=O)N(C)[C@H]3C/C=C\CCN(C3=O)[C@@H](Cc3ccc(C(F)(F)F)cc3)C(=O)N(C)CC(=O)N[C@@H](CCc3cc(F)c(C(F)(F)F)c(F)c3)C(=O)N2C1` [PP1094], the “NRAS/KRAS (ratio of KD value for NRAS to KD value for KRAS)” value in experiment [1] is “A (a compound having 10 or more and less than 20 is denoted as A)”. Further, the “HRAS/KRAS (ratio of KD value for HRAS to KD value for KRAS)” value in experiment [2] is “B (a compound having 3 or more and less than 10 is denoted as B)”. The Kd in experiment [3] came to 840 pM.

With `CCO[C@@H]1C[C@H]2C(=O)NC3(CCC3)C(=O)N(C)[C@@H](C3CCCC3)C(=O)N(C)[C@H](C)CC(=O)N(C)[C@@H](CC)C(=O)N[C@@H]([C@@H](C)CC)C(=O)N(C)CC(=O)N(C)[C@H]3C/C=C\CCN(C3=O)[C@@H](Cc3ccc(C(F)(F)F)cc3)C(=O)N(C)CC(=O)N[C@@H](CCc3cc(F)c(C(F)(F)F)c(F)c3)C(=O)N2C1` [PP1095], in experiment [1], the “NRAS/KRAS (ratio of KD value for NRAS to KD value for KRAS)” value was “B (a compound having 3 or more and less than 10 is denoted as B)”. The “HRAS/KRAS (ratio of KD value for HRAS to KD value for KRAS)” value in experiment [2] was “B (a compound having 3 or more and less than 10 is denoted as B)”. Further, the Kd in experiment [3] was 180 pM.

In the case of `CCO[C@@H]1C[C@H]2C(=O)NC3(CCCC3)C(=O)N(C)[C@@H](C3CCCC3)C(=O)N(C)[C@H](C)CC(=O)N(C)[C@@H](CC(C)C)C(=O)N[C@@H]([C@@H](C)CC)C(=O)N(C)CC(=O)N(C)[C@H]3C/C=C\CCN(C3=O)[C@@H](Cc3ccc(C(F)(F)F)cc3)C(=O)N(C)CC(=O)N[C@@H](CCc3cc(F)c(C(F)(F)F)c(F)c3)C(=O)N2C1` [PP1096], the “NRAS/KRAS (ratio of KD value for NRAS to KD value for KRAS)” value in experiment [1] was “B (a compound having 3 or more and less than 10 is denoted as B)”. The “HRAS/KRAS (ratio of KD value for HRAS to KD value for KRAS)” value in experiment [2] was “B (a compound having 3 or more and less than 10 is denoted as B)”. Also, the Kd in experiment [3] was determined as 240 pM.

For the molecule `CCO[C@@H]1C[C@H]2C(=O)NC3(CCC3)C(=O)N(C)[C@@H](C3CCCC3)C(=O)N3CCC[C@@H]3CC(=O)N(C)[C@@H](CC)C(=O)N[C@@H]([C@@H](C)CC)C(=O)N(C)CC(=O)N(C)[C@H]3C/C=C\CCN(C3=O)[C@@H](Cc3ccc(C(F)(F)F)cc3)C(=O)N(C)CC(=O)N[C@@H](CCc3cc(F)c(C(F)(F)F)c(F)c3)C(=O)N2C1` [PP1097, (2S,8S,12R,14S,20S,26R,30S,33S,39S,41Z)-20-cyclopentyl-8-[2-[3,5-difluoro-4-(trifluoromethyl)phenyl]ethyl]-12-ethoxy-30-ethyl-4,19,29,35,38-pentamethyl-33-[(1 S)-1-methylpropyl]-2-[[4-(trifluoromethyl)phenyl]methyl]spiro[1,4,7,10,16,19,22,29,32,35,38-undecazatetracyclo[37.5.1.0^10,14.022,26]pentatetracont-41-ene-17,1′-cyclobutane]-3,6,9,15,18,21,28,31,34,37,45-undecone], in experiment [1], the “NRAS/KRAS (ratio of KD value for NRAS to KD value for KRAS)” value was “B (a compound having 3 or more and less than 10 is denoted as B)”. Also, the “HRAS/KRAS (ratio of KD value for HRAS to KD value for KRAS)” value in experiment [2] was “B (a compound having 3 or more and less than 10 is denoted as B)”. Besides, the Kd in experiment [3] is 120 pM.

On to `CCO[C@@H]1C[C@H]2C(=O)NC3(CCC3)C(=O)N(C)[C@@H](C3CCCC3)C(=O)N[C@H](C)CC(=O)N(C)[C@@H](CC)C(=O)N[C@@H]([C@@H](C)CC)C(=O)N(C)CC(=O)N(C)[C@H]3C/C=C\CCN(C3=O)[C@@H](Cc3ccc(C(F)(F)F)cc3)C(=O)N(C)CC(=O)N[C@@H](CCc3cc(F)c(C(F)(F)F)c(F)c3)C(=O)N2C1` [PP1098], for which, in experiment [1], the “NRAS/KRAS (ratio of KD value for NRAS to KD value for KRAS)” value was “B (a compound having 3 or more and less than 10 is denoted as B)”. Besides, in experiment [2], the “HRAS/KRAS (ratio of KD value for HRAS to KD value for KRAS)” value is “B (a compound having 3 or more and less than 10 is denoted as B)”. In addition, in experiment [3], the Kd is 680 pM.

Consider `CC[C@H](C)[C@@H]1NC(=O)[C@H](CC)N(C)C(=O)C[C@@H](C)N(C)C(=O)[C@H](C2CCCC2)N(C)C(=O)C2(CCCC2)NC(=O)[C@@H]2CCCN2C(=O)[C@H](CCc2cc(F)c(C(F)(F)F)c(F)c2)NC(=O)CN(C)C(=O)[C@H](Cc2ccc(C(F)(F)F)cc2)N2CC/C=C\C[C@@H](C2=O)N(C)C(=O)CN(C)C1=O` [PP1101], for which the “NRAS/KRAS (ratio of KD value for NRAS to KD value for KRAS)” value in experiment [1] was “B (a compound having 3 or more and less than 10 is denoted as B)”. The “HRAS/KRAS (ratio of KD value for HRAS to KD value for KRAS)” value in experiment [2] is “B (a compound having 3 or more and less than 10 is denoted as B)”. In experiment [3], the Kd is 460 pM.

As for `CC[C@H](C)[C@@H]1NC(=O)[C@H](CC(C)C)N(C)C(=O)C[C@@H](C)N(C)C(=O)[C@H](C2CCCC2)N(C)C(=O)C2(CCCC2)NC(=O)[C@@H]2CCCN2C(=O)[C@H](CCc2cc(F)c(C(F)(F)F)c(F)c2)NC(=O)CN(C)C(=O)[C@H](Cc2ccc(C(F)(F)F)cc2)N2CC/C=C\C[C@@H](C2=O)N(C)C(=O)CN(C)C1=O` [PP1102], the “NRAS/KRAS (ratio of KD value for NRAS to KD value for KRAS)” value in experiment [1] was “B (a compound having 3 or more and less than 10 is denoted as B)”. Besides, the “HRAS/KRAS (ratio of KD value for HRAS to KD value for KRAS)” value in experiment [2] was “A (a compound having 10 or more and less than 20 is denoted as A)”. Also, the Kd in experiment [3] was 950 pM.
